This data set in a line: visual assessment of suspension: ease of dispersion on hand held shaking, extent of aggregation, suspension quality. The format is physicochemical. Conditions: in HFA-134a or HFA-227. The procedure:
Each suspension was assessed visually for its ease of dispersion on hand held shaking, its extent of aggregation and the quality of the suspension.
Ease of dispersion was scored on a scale of good (g), medium (m) and poor (p).
The extent of aggregation was scored on a scale of low, medium and high. Additionally the type of aggregation, if present, was recorded.
The quality of the suspension was scored on a scale of poor (p), poor-fair (p/f), fair (f), fair-good (f/g) and good (g).
The suspension properties measured by visual inspection were ease of dispersion, extent of aggregation and suspension quality and were scored as for Examples A to Q.
The resulting suspensions were assessed visually for ease of dispersion, suspension quality and extent of aggregation and scored as above, as set out under Examples A to R. The results are given in Table IV below.
The suspensions so formed were assessed visually for ease of dispersion and suspension quality and each assessment was scored on a scale of poor (p), poor-fair (p/f), fair (f), fair-good (f/g), good (g).
The extent of aggregation of each suspension was also assessed visually and in each example was rated as low.

Regarding `OC[C@H]1OC(O)[C@H](O)[C@@H](O)[C@@H]1O` (stereo partly drawn) [Glucose, d-glucose anhydrous], the “tendency to cream or sediment in the propellant” value is recorded as “tendency to sediment”.
Take `CC(C)C[C@H](N)C(=O)O` [Leucine, L-leucine]: the “tendency to cream or sediment in the propellant” value is recorded as “tendency to cream”.

The record behind these values is US20050249674A1, “Aerosol composition” (University College Cardiff Consultants Limited, priority 1998, published 2005).
